Results taken from PubChem BioAssay AID2060888 (Molecular Pharmacology Branch, DTP, NCI, 2025).

System: 695427-040-R-J1-PDC complex spheroid viability
Experiment: Anticancer human tumor 695427-040-R-J1-PDC patient-derived colon adenocarcinoma cell line growth inhibition [RAS]
Details: for IC50: curve of first compound; for viability, T/C: stronger effect = lower value; active = viability on the fitted dose curve at most 10% of control; inactive = the rest
Procedure, shortened: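 Multi-cell-type spheroids: tumor cells plus HUVEC endothelial cells and mesenchymal stem cells. RAS-pathway inhibitors were combined with targeted agents, each dosed in half-log steps down from clinical Cmax, or from 10 microM when Cmax was unknown.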

[1] = second compound 0.000949 µM, first compound 0.0316 µM
[2] = second compound 0.000949 µM, first compound 0.1 µM
[3] = second compound 0.000949 µM, first compound 0.316 µM
[4] = second compound 0.000949 µM, first compound 1 µM
[5] = second compound 0.000949 µM, first compound 3.16 µM
[6] = second compound 0.000949 µM, first compound 10 µM
[7] = second compound 0.003 µM, first compound 0.0316 µM
[8] = second compound 0.003 µM, first compound 0.1 µM
[9] = second compound 0.003 µM, first compound 0.316 µM
[10] = second compound 0.003 µM, first compound 1 µM
[11] = second compound 0.003 µM, first compound 3.16 µM
[12] = second compound 0.003 µM, first compound 10 µM
[13] = second compound 0.00949 µM, first compound 0.0316 µM
[14] = second compound 0.00949 µM, first compound 0.1 µM
[15] = second compound 0.00949 µM, first compound 0.316 µM
[16] = second compound 0.00949 µM, first compound 1 µM
[17] = second compound 0.00949 µM, first compound 3.16 µM
[18] = second compound 0.00949 µM, first compound 10 µM
[19] = second compound 0.03 µM, first compound 0.0316 µM
[20] = second compound 0.03 µM, first compound 0.1 µM
[21] = second compound 0.03 µM, first compound 0.316 µM
[22] = second compound 0.03 µM, first compound 1 µM
[23] = second compound 0.03 µM, first compound 3.16 µM
[24] = second compound 0.03 µM, first compound 10 µM
[25] = second compound 0.0949 µM, first compound 0.0316 µM
[26] = second compound 0.0949 µM, first compound 0.1 µM
[27] = second compound 0.0949 µM, first compound 0.316 µM
[28] = second compound 0.0949 µM, first compound 1 µM
[29] = second compound 0.0949 µM, first compound 3.16 µM
[30] = second compound 0.0949 µM, first compound 10 µM
[31] = second compound 0.3 µM, first compound 0.0316 µM
[32] = second compound 0.3 µM, first compound 0.1 µM
[33] = second compound 0.3 µM, first compound 0.316 µM
[34] = second compound 0.3 µM, first compound 1 µM
[35] = second compound 0.3 µM, first compound 3.16 µM
[36] = second compound 0.3 µM, first compound 10 µM
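Note: viability read after seven days of drug exposure.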
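Throughout, for viability, T/C: 100% = DMSO vehicle control viability.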

CC1(O)CCCC1n1c(=O)c(C(F)F)cc2cnc(NC3CCN(S(C)(=O)=O)CC3)nc21 (stereo not drawn) + CCn1c(-c2cccnc2C(C)OC)c2c3cc(ccc31)N1CCOC(CC(NC(=O)C(C(C)C)N(C)C(=O)C3(F)CCN(C(=O)C#CC(C)(C)N(C)C)CC3)C(=O)N3CCCC(N3)C(=O)OCC(C)(C)C2)C1
inactive: viability, T/C [1] 102% | viability, T/C [2] 104% | viability, T/C [3] 90.7% | viability, T/C [4] 104% | viability, T/C [5] 93.1% | viability, T/C [6] 79.4% | viability, T/C [7] 102% | viability, T/C [8] 98.7% | viability, T/C [9] 95.9% | viability, T/C [10] 103% | viability, T/C [11] 125% | viability, T/C [12] 86.3% | viability, T/C [13] 108% | viability, T/C [14] 80.8% | viability, T/C [15] 97.5% | viability, T/C [16] 87.6% | viability, T/C [17] 124% | viability, T/C [18] 88.6% | viability, T/C [19] 90.2% | viability, T/C [20] 80% | viability, T/C [21] 81.3% | viability, T/C [22] 97.9% | viability, T/C [23] 115% | viability, T/C [24] 73.6% | viability, T/C [25] 77.3% | viability, T/C [26] 95.7% | viability, T/C [27] 89.4% | viability, T/C [28] 113% | viability, T/C [29] 124% | viability, T/C [30] 71.3% | viability, T/C [31] 77% | viability, T/C [32] 94% | viability, T/C [33] 85% | viability, T/C [34] 95.7% | viability, T/C [35] 95.9% | viability, T/C [36] 49.9%
9.98 µM: IC50 (second compound 0.3 µM)
> 10 µM: IC50 (second compound 0.000949 µM) | IC50 (second compound 0.003 µM) | IC50 (second compound 0.00949 µM) | IC50 (second compound 0.03 µM) | IC50 (second compound 0.0949 µM)

C[C@@H](NC(=O)c1ncnc(N)c1Cl)c1ncc(C(=O)Nc2cc(C(F)(F)F)c(Cl)cn2)s1 + CCn1c(-c2cc(N3CCN(C)CC3)cnc2C(C)OC)c2c3cc(ccc31)-c1csc(n1)CC(NC(=O)C1CC1C)C(=O)N1CCCC(N1)C(=O)OCC(C)(C)C2
> 10 µM: IC50 (second compound 0.000949 µM) | IC50 (second compound 0.003 µM) | IC50 (second compound 0.00949 µM) | IC50 (second compound 0.03 µM) | IC50 (second compound 0.0949 µM)
inactive: viability, T/C [1] 77.4% | viability, T/C [2] 94% | viability, T/C [3] 84.1% | viability, T/C [4] 87.6% | viability, T/C [5] 108% | viability, T/C [6] 78.5% | viability, T/C [7] 117% | viability, T/C [8] 91% | viability, T/C [9] 99.6% | viability, T/C [10] 85.9% | viability, T/C [11] 117% | viability, T/C [12] 70.1% | viability, T/C [13] 95.3% | viability, T/C [14] 83.4% | viability, T/C [15] 83.6% | viability, T/C [16] 84.4% | viability, T/C [17] 85.6% | viability, T/C [18] 53.1% | viability, T/C [19] 65.8% | viability, T/C [20] 71% | viability, T/C [21] 76.3% | viability, T/C [22] 72.4% | viability, T/C [23] 81.3% | viability, T/C [24] 55.6% | viability, T/C [25] 56.2% | viability, T/C [26] 58.2% | viability, T/C [27] 58.4% | viability, T/C [28] 48.7% | viability, T/C [29] 72.4% | viability, T/C [30] 51.2% | viability, T/C [31] 36.4% | viability, T/C [32] 44.2% | viability, T/C [33] 44.4% | viability, T/C [34] 45.4% | viability, T/C [35] 50.1% | viability, T/C [36] 33%
< 0.0316 µM: IC50 (second compound 0.3 µM)

CC(C)NCC(C(=O)N1CCN(c2ncnc3c2C(C)CC3O)CC1)c1ccc(Cl)cc1 (stereo not drawn) + CCn1c(-c2cc(N3CCN(C)CC3)cnc2C(C)OC)c2c3cc(ccc31)-c1csc(n1)CC(NC(=O)C1CC1C)C(=O)N1CCCC(N1)C(=O)OCC(C)(C)C2
inactive: viability, T/C [1] 84.9% | viability, T/C [2] 98.1% | viability, T/C [3] 78.2% | viability, T/C [4] 89.4% | viability, T/C [5] 60.6% | viability, T/C [6] 54.8% | viability, T/C [7] 107% | viability, T/C [8] 85.5% | viability, T/C [9] 96.5% | viability, T/C [10] 73% | viability, T/C [11] 85.6% | viability, T/C [12] 59.2% | viability, T/C [13] 74.4% | viability, T/C [14] 81.3% | viability, T/C [15] 65% | viability, T/C [16] 59.1% | viability, T/C [17] 85.3% | viability, T/C [18] 54.1% | viability, T/C [19] 51.4% | viability, T/C [20] 54.6% | viability, T/C [21] 51.4% | viability, T/C [22] 52.5% | viability, T/C [23] 60.1% | viability, T/C [24] 35.1% | viability, T/C [25] 36.4% | viability, T/C [26] 45.1% | viability, T/C [27] 39.2% | viability, T/C [28] 36% | viability, T/C [29] 41.9% | viability, T/C [30] 24.6% | viability, T/C [31] 36.9% | viability, T/C [32] 28.7% | viability, T/C [33] 35.5% | viability, T/C [34] 30.8% | viability, T/C [35] 27.9% | viability, T/C [36] 15.5%
4.05 µM: IC50 (second compound 0.03 µM)
< 0.0316 µM: IC50 (second compound 0.0949 µM) | IC50 (second compound 0.3 µM)
> 10 µM: IC50 (second compound 0.000949 µM) | IC50 (second compound 0.003 µM) | IC50 (second compound 0.00949 µM)

Cc1nc(N2CCC3(CC2)COC(C)C3N)c(CO)nc1Sc1ccnc(N)c1Cl (stereo not drawn) + CCn1c(-c2cccnc2C(C)OC)c2c3cc(ccc31)N1CCOC(CC(NC(=O)C(C(C)C)N(C)C(=O)C3(F)CCN(C(=O)C#CC(C)(C)N(C)C)CC3)C(=O)N3CCCC(N3)C(=O)OCC(C)(C)C2)C1
2.82 µM: IC50 (second compound 0.3 µM)
inactive: viability, T/C [1] 84.9% | viability, T/C [2] 93.2% | viability, T/C [3] 75.4% | viability, T/C [4] 64.3% | viability, T/C [5] 60.4% | viability, T/C [6] 61.3% | viability, T/C [7] 94.2% | viability, T/C [8] 70.6% | viability, T/C [9] 71.4% | viability, T/C [10] 63.2% | viability, T/C [11] 67.1% | viability, T/C [12] 47.3% | viability, T/C [13] 104% | viability, T/C [14] 82% | viability, T/C [15] 83.9% | viability, T/C [16] 57.8% | viability, T/C [17] 67.1% | viability, T/C [18] 49.3% | viability, T/C [19] 75% | viability, T/C [20] 85.8% | viability, T/C [21] 63% | viability, T/C [22] 63.8% | viability, T/C [23] 65.5% | viability, T/C [24] 53.4% | viability, T/C [25] 78.2% | viability, T/C [26] 83.7% | viability, T/C [27] 74% | viability, T/C [28] 68.1% | viability, T/C [29] 63% | viability, T/C [30] 52.7% | viability, T/C [31] 85.2% | viability, T/C [32] 70.9% | viability, T/C [33] 70.5% | viability, T/C [34] 51.4% | viability, T/C [35] 51.4% | viability, T/C [36] 43.5%
> 10 µM: IC50 (second compound 0.000949 µM) | IC50 (second compound 0.003 µM) | IC50 (second compound 0.00949 µM) | IC50 (second compound 0.03 µM) | IC50 (second compound 0.0949 µM)
